Results from patent US12471620B2, “Use of isothiocyanate in smokeless tobacco products” (Gamot Global Pte. Ltd., priority 2019, dated 2025).

System: A549 cells
Assay: CellEvent Caspase 3/7 green detection assay of apoptosis, brightfield and fluorescent imaging
Format: cell-based, human
Settings: for concentration at which exponentially more cells undergo apoptosis than at lower concentrations: at 48 hours (AITC, combinations) or earlier than at lower concentrations; for induction of cell death (apoptosis): daily treatment, imaged at 24 to 96 hours (combinations up to 72 hours)
Procedure: A549 cells were plated into 48 well culture plates at a density of 3.0×10^4 cells/cm^2. Cells were dissociated with 0.05% trypsin EDTA following a 5-minute incubation at 37° C., neutralized in a 1:1 ratio of standard medium and counted using a hemocytometer prior to plating. All wells were settled overnight prior to addition of one of the following treatment compounds: AITC, PEITC, Thymoquinone, or Resveratrol. All treatments were performed within 24 hours following initial plating.
Treatment of the A549 cells occurred at the following time points and concentrations: AITC—25 μM, 50 μM and 100 μM for 24, 48 and 96 hours. PEITC—25 μM, 50 μM, 100 μM and 200 μM for 24, 48 and 96 hours. TQ—25 μM, 50 μM, 10 0 μM and 200 μM for 24, 48 and 96 hours. Resveratrol—25 μM, 50 μM and 100 μM for 48 and 96 hours. DMSO was used to dissolve each compound, and cells treated with DMSO without any of tested compounds served as a control. Treated cells received daily treatments using the same concentrations until the last time point of the experiment.
Apoptosis was detected using the CellEvent Caspase 3/7 green detection kit/assay from Thermofisher Scientific. Cells were incubated with diluted assay reagent for 30 minutes at 37° C. prior to analysis, and imaged by a brightfield and a fluorescent microscopes.
CellEvent Caspase-3/7 Green Detection Reagent is intrinsically non-fluorescent, as the four amino acid peptide (DEVD peptide) inhibits the ability of the dye to bind to DNA. However, following activation of caspase-3/7 in apoptotic cells, the DEVD peptide is cleaved, enabling the dye to bind to DNA and produce a bright, fluorogenic response. The fluorescent emission of the dye ˜530 can be observed under a fluorescent microscope.

SMILES | apoptotic effect at 25 μM relative to higher concentrations (25 μM) | concentration at which exponentially more cells undergo apoptosis than at lower concentrations [µM] | induction of cell death (apoptosis) | onset of apoptotic effects (effects only observed at 48 and 96 hours)
Oc1ccc(C=Cc2cc(O)cc(O)c2)cc1 [Resveratrol] | reduced | ≥ 50 | induces cell death | delayed relative to other compounds
C=CCN=C=S [AITC, Allyl Isothiocyanate] | – | ≥ 50 | induces cancer cell death | –
CC1=CC(=O)C(C(C)C)=CC1=O [Thymoquinone] | – | ≥ 100 | induces cell death | –
